Data: a melting point compilation (Tetko et al.; mined from patent text by program, amines drawn as free bases though some values may be those of a salt)

First: CC1(C)OCC(COc2cc(N)c([N+](=O)[O-])cc2I)O1 (racemic)
Second: CC(=O)Nc1cc(SCC(C)C)ccc1[N+](=O)[O-]
The melting point of the first is higher: 151 °C for the first, 53 to 55 °C for the second.

Compared with `CCOC(=O)c1ncc2[nH]c3ccc(C(C)(C)C)cc3c2c1C`, `CCOC(=O)c1c[nH]c2cnc3c(F)c(Cl)c(F)cc3c2c1=O` is higher in melting point: 201 to 203 °C for the first, 328 °C for the second.

Compared with `CC(=O)OCC(=O)C1=CCC2C3CCC4=CC(=O)C=CC4(C)C3C(O)CC12C` (centres undefined), `COC(=O)c1ccc(C2(c3ccc4c(c3)C3(C)C5(C)CCC(C5)C3(C)O4)OCCO2)cc1` (centres undefined) is lower in melting point: 203 to 205 °C for the first, 136 to 137 °C for the second.

First: COC(=O)CCCc1cc2cc(Cl)ccc2n1S(=O)(=O)c1ccc2c(c1)CCC(C)(C)O2
Second: CC(C)c1ccc(S(=O)(=O)n2c(Cc3ccc(C(=O)O)cc3)cc3cc(Cl)ccc32)cc1
The melting point of the first is lower: 126 to 129 °C for the first, 192 °C for the second.

Compared with `CC1=CC(=O)C(C)=C(C)C1=O`, `Cc1cccc2nc3n(c(=O)c12)-c1ccc(F)cc1C3=O` is higher in melting point: 28 °C for the first, 300 to 301 °C for the second.

Compared with `CCOC(=O)Cn1nnc(-c2cccc(OCc3ccc4ccccc4n3)c2)n1`, `COC(=O)C(C)(C)Cc1cc2cc(OCc3ccc4ccccc4n3)ccc2[nH]1` is higher in melting point: 111 to 113 °C for the first, 131 to 132 °C for the second.

Compared with `CS(=O)(=O)c1cccc(-c2cc(N3CCOCC3)cc(Nc3ccc(OC(F)(F)F)cc3)n2)c1`, `CC(OC(=O)Nc1ccc(-c2ncn(-c3ccc(OC(F)(F)F)cc3)n2)cc1)C1CC1` (centres undefined) is lower in melting point: 233 to 235 °C for the first, 123 to 124 °C for the second.

First: Oc1ccc(C2CCOCC2)cc1
Second: CC(=O)c1ccc(C2CCCC2)cc1
The melting point of the first is higher: 164 °C for the first, 100 to 102 °C for the second.

First: Cc1cccnc1-n1c(S(=O)Cc2ccccc2N(C)C)nc2c1CCC2 (centres undefined)
Second: COc1ccccc1C(=O)c1ncccc1C
The melting point of the first is higher: 119 to 120 °C for the first, 98 to 100 °C for the second.

Compared with `CCCc1nc2c(N)nc(C)c(C)c2n1CCCCCS(=O)(=O)c1ccccc1`, `CCOCc1nc2c(N)nc3cc(OCc4ccccc4)ccc3c2n1CC(C)(C)NC(C)=O` is higher in melting point: 134 to 136 °C for the first, 202 to 205 °C for the second.

First: COc1cc(Nc2nccc(-c3sc(CO)nc3C)n2)ccc1N1CCOCC1
Second: CCN1C(=O)CCCc2cc(Nc3ncc(Cl)c(Nc4c(F)cccc4C(=O)NC)n3)c(OC)cc21
The melting point of the first is lower: 180 to 181 °C for the first, 254 to 256 °C for the second.

First: c1ccc(N2CCOCC2)c(N=C2CCCCN2)c1
Second: Nc1nc2ccccc2c2c1nc(CCO)n2CC1(O)CCOCC1
The melting point of the first is lower: 89 to 90 °C for the first, 237 to 238 °C for the second.

First: OCc1cc2ccc3c4ccccc4ccc3c2s1
Second: O=[N+]([O-])c1ccc(OCc2ccccc2)c(CO)c1
The melting point of the first is higher: 169 to 170 °C for the first, 81 to 83 °C for the second.

First: Cc1[nH]c(=O)c(C#N)c2c1CC(c1ccccn1)CC2 (centres undefined)
Second: O=C(O)C1CCN(c2ncc(NS(=O)(=O)c3ccc(Br)cc3)c(NCc3ccccc3)n2)CC1
The melting point of the first is higher: over 300 °C for the first, 136 to 138 °C for the second.

First: CCC(CCc1cc(-c2ccccc2)nc2ccccc12)C(=O)N(CC)CC (centres undefined)
Second: CCc1cccc(CC)c1NC(=O)c1c(-c2ccccc2)oc(C)cc1=O
The melting point of the first is lower: 81 °C for the first, 186 to 189 °C for the second.

First: O=P(O)(O)Oc1cccc(-c2nc3sccn3c2-c2cccc(N[C@@H]3CCCN(S(=O)(=O)c4ccc(Cl)cc4)C3)c2)c1
Second: C[C@@]1(NC(=O)c2cc3cccc4c3n2CCC4)C(=O)N(c2ccccc2F)c2ccccc21
The melting point of the first is higher: 239 to 245 °C for the first, 194 to 195 °C for the second.

First: CCOC(=O)c1nc(C)n2c1CN=C(c1ccccc1F)c1cc(C#N)ccc1-2
Second: CCOC(=O)c1cc2ccc([Si](C)(C)C)cc2n1Cc1cccc(F)c1
The melting point of the first is higher: 272 to 274 °C for the first, 87 to 88 °C for the second.

Compared with `C[Si](C)(C)C#Cc1cc2cccnc2c(-c2cccc([N+](=O)[O-])c2)n1`, `N#Cc1cc([N+](=O)[O-])ccc1NC(=O)c1cccc([N+](=O)[O-])c1` is higher in melting point: 160 to 163 °C for the first, 205 to 206 °C for the second.

First: O=C(NO)c1ccc2c(c1)CCN(C(=O)NCCOc1ccccc1)C2
Second: O=C(CCCC(=O)N1CCC(c2ccc(Cl)cc2)CC1)c1ccc2c(c1)CCNCC2
The melting point of the first is higher: 120 to 123 °C for the first, 112 to 113 °C for the second.

First: COc1nc(NC(=O)NS(=O)(=O)c2ccccc2C(=O)OC(C)C)nc(C(F)(F)F)n1
Second: Cc1ccc(NC(=O)c2ccccc2N)cc1C(F)(F)F
The melting point of the first is higher: 182 to 185 °C for the first, 138 to 140 °C for the second.

First: CC(C)(C=O)C(=O)Nc1ccc(Cl)cc1
Second: CC(CC(=O)NC(=O)OC(C)(C)C)Nc1ccc(Cl)cc1 (centres undefined)
The melting point of the first is lower: 99 to 100 °C for the first, 114 to 115 °C for the second.

First: CCOC(=O)c1cc2c3ccccc3n(Cc3ccccc3)c2nc1N1CCCCC1
Second: O=C(O)[C@H]1[C@H](CS)N(Cc2ccccc2)C(=O)N1Cc1ccccc1
The melting point of the first is lower: 155 to 156 °C for the first, 159 to 160 °C for the second.

First: CC(C)(C)OC(=O)N1CCC(OCc2ccccc2)C1CC(O)Cn1cnc2cccc(C(F)(F)F)c2c1=O (centres undefined)
Second: O=C(O)c1cn(C2CC2)c2cc(F)c(F)c(NCc3ccccc3)c2c1=O
The melting point of the first is higher: 224 °C for the first, 214 to 216 °C for the second.

First: CCOC(=O)c1cn(-c2ccccc2)nc1OCc1ccc(OCc2nc(-c3ccco3)oc2C)c(OC)c1
Second: COc1ccc(C(=O)Nc2cccnc2)c2c1oc1ccccc12
The melting point of the first is lower: 150 to 151 °C for the first, 226 °C for the second.

First: CC[C@@]1(C=O)CCCN(CCc2c[nH]c3ccc(OC)cc23)C1=O
Second: CCOC(=O)c1cc2n(C)c3ccc(OC)cc3c(=O)n2n1
The melting point of the first is lower: 108 °C for the first, 249 to 251 °C for the second.

First: CCc1c(C(C)C)nc(C(C)C)c(CO)c1-c1ccc(F)cc1
Second: N#Cc1ccc(-c2nc(CO)no2)cc1
The melting point of the first is lower: 126 to 129 °C for the first, 138 to 140 °C for the second.

First: OCCON=Cc1ccncc1
Second: CC(C)COC(=O)C1(F)C(=O)NC(=O)NC1O/N=C\c1ccco1 (centres undefined)
The melting point of the first is lower: 78 to 80 °C for the first, 159 to 160 °C for the second.

First: COC(=O)C(=CN(C)C)N(C)c1cc(-c2ccc(Cl)c(Cl)c2)n(C)n1
Second: CC(Oc1ncn(-c2cccc(Cl)c2)n1)C(=O)N(C)C (centres undefined)
The melting point of the first is lower: 113 to 114 °C for the first, 136 to 139 °C for the second.

First: Cc1ccc(-c2ccccc2)cc1Cn1c(C(F)F)nn(C)c1=O
Second: Cc1ccc(-c2cn(C)cc(-c3ccccc3)c2=O)cc1Br
The melting point of the first is lower: 72.7 °C for the first, 168 to 170 °C for the second.

Compared with `NC(=O)N1CC(Oc2cccc(F)c2)C1`, `OC1CC2(CCNC2)c2ccc(F)cc21` (centres undefined) is lower in melting point: 169 to 170 °C for the first, 162 to 164 °C for the second.

First: Nc1cc2c(c(C(=O)O)c1)CCCC2
Second: Cc1oncc1C(=O)N1CCC(O)CC1
The melting point of the first is higher: 178 to 180 °C for the first, 70.5 to 72.5 °C for the second.

Compared with `CCOC(=O)C1=C(C)NC(c2csc(Cl)n2)=NC1c1ccc(F)cc1Cl` (centres undefined), `CCOC(=O)c1cc(-n2c(=O)c3c(n(C)c2=O)CSC3)ccc1Cl` is higher in melting point: 141 to 143 °C for the first, 203 to 206 °C for the second.

First: CSc1ccc(C=O)c(Cl)c1
Second: COc1ccc(C(=O)c2ccoc2)c(Cl)c1Cl
The melting point of the first is lower: 76 to 77 °C for the first, 118 to 122 °C for the second.

First: CC(C)c1ccc(C(=O)C2=C(O)C(=O)N(c3ncc(Sc4ccc([N+](=O)[O-])cc4)s3)C2c2ccc(OC(F)(F)F)cc2)cc1 (centres undefined)
Second: Cc1nc(N2CCN(Cc3ccc(OC(F)(F)F)cc3)C2=O)sc1C(=O)NCc1cccnc1
The melting point of the first is higher: 238 °C for the first, 165 to 166 °C for the second.

First: Nc1ccc2c(c1)ncn2-c1ccccc1O
Second: Nc1ccc2ccc(Oc3cccc(Cl)c3)nc2n1
The melting point of the first is higher: 202 to 203 °C for the first, 166 °C for the second.

First: CC(C)(C)CNc1nc(C(=O)C(=O)c2ccccc2)ccc1[N+](=O)[O-]
Second: Cc1cc(=O)c(C(=O)Nc2ccccc2)c(C)o1
The melting point of the first is lower: 88 to 90 °C for the first, 148 to 149 °C for the second.

First: CCCCn1cc(C(=O)C(=O)O)c2cc(-c3ccc(Cl)cc3)ccc21
Second: Clc1ccc(-c2cc(Cl)c3cc(Cl)ccc3n2)cc1
The melting point of the first is lower: 136 to 137 °C for the first, 204 to 208 °C for the second.

First: O=[N+]([O-])c1cccc(C(O)C(Cl)(Cl)Cl)c1 (centres undefined)
Second: COC(=O)c1sccc1Nc1ccc(Cl)cc1[N+](=O)[O-]
The melting point of the first is lower: 91 to 95 °C for the first, 207 to 208 °C for the second.

First: CCCCCCCCC/C=C1\SC(=O)N(CC(=O)OC)C1=O
Second: NC(=O)CCCCCc1nccc(NC(N)=NCC(F)(F)F)n1
The melting point of the first is lower: 30 °C for the first, 179 to 181 °C for the second.

Compared with `CCOC(=O)c1cnc(N)s1`, `CCOC(=O)C(=O)Nc1cccc(OC)c1C(N)=O` is higher in melting point: 155 to 158 °C for the first, 170 to 173 °C for the second.

First: CNc1ccccc1C(C)=O
Second: CSc1ccc(C(=O)Nc2cccnc2C(=O)Nc2ccc(Cl)cn2)c(OC2CCNCC2)c1
The melting point of the first is lower: 34 to 35 °C for the first, 157 to 158 °C for the second.

Compared with `CCOC(=O)C(C)(C)Oc1ccc2c(-c3ccc(Cl)cc3)noc2c1`, `Cc1ccc(-c2nc(CCC(=O)c3ccc(Br)s3)c(C)o2)cc1` is higher in melting point: 70 °C for the first, 118 to 119 °C for the second.

Compared with `NNC(=O)C(Cc1cccs1)NC(=O)[C@H](Cc1cccc2ccccc12)NC(=O)OCc1ccccc1` (mixture of isomers), `O=S(=O)(c1ccc2ccccc2c1)N1C[C@H](O)C[C@H]1COCc1ccccc1` is lower in melting point: 163 to 164 °C for the first, 124 to 126 °C for the second.

First: CCc1ncc2n1N=C(c1ccc(N)cc1)c1cc3c(cc1C2)OCO3
Second: Cc1ccc(S(=O)(=O)N2[C@@H](CCc3nc(C4CC4)no3)CC[C@H]2c2ccc(F)cc2)cc1 (racemic)
The melting point of the first is higher: 135 to 138 °C for the first, 129 °C for the second.

Compared with `O=C(O)CC(=O)Nc1ccccc1CCNC(=O)/C(=C/c1c[nH]c2ccccc12)NC(=O)OC1C2CC3CC(C2)CC1C3` (centres undefined), `COc1cc(C(=O)N2CCC(CCN3CCC(O)(c4nc5ccccc5n4Cc4ccc(F)cc4)CC3)(c3ccc(Cl)c(Cl)c3)C2)cc(OC)c1OC` (centres undefined) is higher in melting point: 112 to 120 °C for the first, 130 to 150 °C for the second.

Compared with `OC1CSC(Oc2cncc(-c3ccc(F)cc3Cl)c2)C(O)C1O` (centres undefined), `O=C(O)C1=Cc2cc(Cl)cc(Cl)c2SC1C(F)(F)F` (centres undefined) is higher in melting point: 208 to 211 °C for the first, 218 to 220 °C for the second.

First: COc1cc2ncnc(Nc3cc(Cl)cc(N=[N+]=[N-])c3)c2cc1OC
Second: CCOC(=O)N1c2cc(OC)c(OC)cc2[C@H](NC(=O)Cc2cc(C(F)(F)F)cc(C(F)(F)F)c2)C[C@@H]1C (relative stereo)
The melting point of the first is higher: 205 to 206 °C for the first, 157 to 159 °C for the second.

Compared with `Cn1c(S(=O)(=O)CCCl)nnc1S(=O)(=O)CCCl`, `O=C(O)C1C=CCn2c(=O)n(CCCl)c(=O)n21` (centres undefined) is lower in melting point: 156 °C for the first, 150 to 151 °C for the second.

Compared with `CC[Si](CC)(Cc1ccc(N(c2ccccc2)c2ccccc2)cc1)Cc1ccc(N(c2ccccc2)c2ccccc2)cc1`, `CCCCn1nc2c(N)nc3ncccc3c2c1CC(C)(C)O` is higher in melting point: 115 to 117 °C for the first, 232 to 235 °C for the second.

With `CC1(C)NC(=O)N(c2ccc(C#N)c(C(F)(F)F)c2)C1=N` the melting point was 228 °C.
